In patent US20250197425A1, “2,6,9-TRISUBSTITUTED PURINES” (ASTRAZENECA AB, priority 2022, published 2025):
pIC50: −log10 of the molar value. ≈ marks a conversion by molar mass, not a printed value. Read-outs that look alike come from different tables or passages of the source.

What was measured:
CDK2:CCNE1 = CDK2:CCNE1 (Homo sapiens (Human), UniProt P24941); assay: NanoBRET assay in MCF-7 cells, CDK2; assay type: cell-based; conditions: transfected MCF-7 cells, 2 hours, n = 1 or average
Method: Compounds were tested in breast cancer cell line MCF-7 to assess inhibition of CDK1, CDK2, and CDK4 activity. […] The next day media were evacuated from the wells using the Bluewasher centrifugal plate washer (Bluecatbio) and 10 μL/well phenol red free OptiMEM was then added using a Multidrop Combi. […] Immediately after compound addition, a Tecan HP300 dispensor was used to dispense the relevant NanoBRET™ tracer to the CDK1 wells (12.5 nl, 400 μM, NanoBRET™ TE Tracer K-9), the CDK2 wells (12.5 nl, 200 μM, NanoBRET™ TE Tracer K-9), and the CDK4 wells (8 nl, 100 μM, NanoBRET™ TE Tracer K-7) and the plates were incubated for 2 hours at 37° C. and 5% CO2. […] The plates were incubated in subdued lighting for 10 minutes and then read on a Pherastar FS plate reader (BMG Technologies) using a NanoBRET™ filter module (460±80 nm/610 nm-LP). The ratio values were normalized to controls and the IC50 values of test compounds determined using Genedata Screener software.

[1] = Aqueous thermodynamic solubility, shake-flask; assay type: physicochemical; conditions: phosphate buffer 0.1 M, pH 7.4, 24 hours
Method: The DMSO was evaporated and the dried compounds were equilibrated in glass vials in aqueous phosphate buffer (0.1 M, pH 7.4) for 24 hours at 25° C. under constant stirring. The portion with the dissolved compound was then separated from the remainder through a double centrifugation with a tip wash in between to ensure that no residues of the dried compound were interfering. The solutions were diluted with purified water before quantification using UPLC/MS/MS.

[2] = tested on: POLR2A Ser2 phosphorylation (CDK9); assay: POLR2A Ser2 phosphorylation imaging assay in MCF-7 cells; assay type: cell-based; conditions: MCF-7 cells, 2 hours, read-out: POLR2A Ser2 phosphorylation IC50
Method: Compounds were tested to assess their effect on CDK9 activity in a cellular context. […] During the cell cycle, CDK9 is a component of a multiprotein complex that phosphorylates POLR2A Ser2 which results in transcription elongation.
[…] were fixed by addition of 40 μL/well of 8% paraformaldehyde and incubated for 10 minutes at room temperature. The plates were washed three times with 50 μL/well PBS using a Biotek EL406 plate washer and then permeabilized for 10 minutes at room temperature in 0.3% Triton X100 in PBS. After washing as before, the plates were blocked using 30 μL/well of 2% BSA (w/v) in PBS-T for over 30 minutes at room temperature. […] After washing in PBS as before, leaving each well in 40 μL of PBS, the plates were sealed and imaged on a Cell Insight imaging system (Thermo) with a 10× objective and 2 fields of view per well. POLR2A Ser2levels were normalized to controls and the IC50 values of test compounds determined using Genedata Screener software.

[3] = CLint assessment in human liver microsomes (HLM); assay type: in vitro ADME; conditions: 1 μM
Method: After a preincubation with NADPH for 8 minutes, reactions were initiated through the addition of the test compound (final volume 250 μl) and incubated at 37° C. in a water bath for 30 minutes. […] Samples were shaken at 800 rpm for 2 minutes and centrifuged at 4000 rpm for 20 minutes at 4° C. to pellet precipitated protein. The supernatant fraction was diluted 1:5 with deionized water, shaken at 1000 rpm for 2 minutes, and further diluted 1:1 with deionized water. Samples were analyzed by LC-MS/MS. The t1/2 and the CLint of the compounds incubated in the LM, HLM, and HμREL assays as described above were calculated according to the following equations: […] where V (μl/×10^6 cells or mg protein) is the incubation volume (μl) divided by the number of cells (×10^6) or microsomal protein content (mg) in the incubation.

CDK4:CCND1 = CDK4:CCND1 (Homo sapiens (Human), UniProt P11802); assay: NanoBRET assay in MCF-7 cells, CDK4; assay type: cell-based; conditions: NanoBRET, transfected MCF-7 cells, 2 hours; n = 1 or average; read-out: CDK4 IC50
CDK4:CCND1, sequence (P11802 whole entry): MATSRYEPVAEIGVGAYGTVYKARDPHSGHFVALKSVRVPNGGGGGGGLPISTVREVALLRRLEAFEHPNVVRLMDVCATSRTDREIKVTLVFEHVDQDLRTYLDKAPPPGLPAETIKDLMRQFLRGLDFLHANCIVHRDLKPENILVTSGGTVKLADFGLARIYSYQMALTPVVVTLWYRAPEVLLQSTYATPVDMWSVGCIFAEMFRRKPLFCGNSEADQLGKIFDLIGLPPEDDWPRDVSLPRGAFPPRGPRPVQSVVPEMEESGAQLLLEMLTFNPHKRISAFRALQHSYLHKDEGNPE
CDK4:CCND1, sequence (P24385 whole entry partner): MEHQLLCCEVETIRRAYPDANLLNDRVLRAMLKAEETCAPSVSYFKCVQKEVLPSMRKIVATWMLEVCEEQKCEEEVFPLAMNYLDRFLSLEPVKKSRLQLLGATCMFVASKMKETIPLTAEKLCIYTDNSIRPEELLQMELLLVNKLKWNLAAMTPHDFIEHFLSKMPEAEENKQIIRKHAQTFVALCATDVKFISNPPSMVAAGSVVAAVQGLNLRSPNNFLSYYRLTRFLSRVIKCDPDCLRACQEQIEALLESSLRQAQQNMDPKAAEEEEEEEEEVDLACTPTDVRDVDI
Method: (§1) Compounds were tested in breast cancer cell line MCF-7 to assess inhibition of CDK1, CDK2, and CDK4 activity. MCF-7 cells transiently transfected with CDK1:CCNB1, CDK2:CCNE1, or CDK4:CCND1 were harvested at a density of 1E5 cells/mL in complete media, seeded 20 μL/well into 384-well Greiner 784080 plates using a Multidrop Combi, and incubated overnight at 37° C. and 5% CO2. The next day media were evacuated from the wells using the Bluewasher centrifugal plate washer (Bluecatbio) and 10 μL/well phenol red free OptiMEM was then added using a Multidrop Combi. […] Immediately after compound addition, a Tecan HP300 dispensor was used to dispense the relevant NanoBRET™ tracer to the CDK1 wells (12.5 nl, 400 μM, NanoBRET™ TE Tracer K-9), the CDK2 wells (12.5 nl, 200 μM, NanoBRET™ TE Tracer K-9), and the CDK4 wells (8 nl, 100 μM, NanoBRET™ TE Tracer K-7) and the plates were incubated for 2 hours at 37° C. and 5% CO2. The plates were allowed to cool for 10 minutes at room temperature and 5 μL/well of TE Nano-Glo®Substrate/Inhibitor at 2.4 μM and 1:500 respectively (N2162 Promega) was added. The plates were incubated in subdued lighting for 10 minutes and then read on a Pherastar FS plate reader (BMG Technologies) using a NanoBRET™ filter module (460±80 nm/610 nm-LP). The ratio values were normalized to controls and the IC50 values of test compounds determined using Genedata Screener software.

[4] = tested on: NPM phosphorylation (Thr199, CDK2-cyclin E complex); assay: NPM phosphorylation imaging assay in MCF-7 cells; assay type: cell-based; conditions: 4N DNA cells
Method: Compounds were tested to assess the effects of CDK2 inhibition in a cellular context. […] During the cell cycle, the CDK2-cyclin E complex phosphorylates NPM at Thr199 which is a prerequisite step for initiation of centrosome duplication.
The cells were fixed by addition of 40 μL/well of 8% paraformaldehyde and incubated at room temperature for 10 minutes. The plates were washed three times with 50 μL/well PBS using a Biotek EL406 plate washer and then permeabilized for 10 minutes at room temperature in 0.3% Triton X100 in PBS. After washing as before, the plates were blocked using 30 μL/well of 2% BSA (w/v) in PBS-T for at least 30 minutes at room temperature. […] Cells containing 4N DNA were selected using the Hoechst staining. Phospho-NPM levels were normalized to controls and the IC50 values of test compounds determined using Genedata Screener software.

OVCAR3 cells = assay: Cellular proliferation EdU assay, OVCAR3; assay type: cell-based, human; conditions: EdU assay, two days, read-out: OVCAR3 IC50
Method: (§2) Compounds were tested to assess inhibition of cellular proliferation in the breast cancer cell line MCF-7 and the CCNE1-amplified ovarian cell line OVCAR3.
(§3) MCF-7 and OVCAR3 cells in RPMI supplemented with 10% Fetal bovine serum were seeded into 384-well plates (Greiner, Kremsmunster, Austria; 781091), 30 μL/well, using a WellMate. The MCF7 and OVCAR3 cells were seeded at 800 and 1200 cells/well, respectively. Test compounds were added to the wells using an Echo 555 liquid handler and the plates were placed in incubator maintained at 37° C. and 5% CO2 and incubated for two days. On Day 2, an EdU assay was performed following the manufacturer's protocol (Thermo Fisher, C10351). The cells were read on an Acumen eX3 instrument. The IC50 values of test compounds were determined in Genedata by assessing the ratio of signal intensity at 488 nm to the area of signal at 405 nm.

MCF-7 cells = assay: Cellular proliferation EdU assay, MCF-7; assay type: cell-based; conditions: EdU assay, two days, read-out: MCF-7 IC50
Method: as §2, §3

CDK1:CCNB1 = CDK1:CCNB1 (Homo sapiens (Human), UniProt P06493); assay: NanoBRET assay in MCF-7 cells, CDK1; assay type: cell-based; conditions: NanoBRET, transfected MCF-7 cells, 2 hours; n = 1 or average; read-out: CDK1 IC50
CDK1:CCNB1, sequence (P06493 whole entry): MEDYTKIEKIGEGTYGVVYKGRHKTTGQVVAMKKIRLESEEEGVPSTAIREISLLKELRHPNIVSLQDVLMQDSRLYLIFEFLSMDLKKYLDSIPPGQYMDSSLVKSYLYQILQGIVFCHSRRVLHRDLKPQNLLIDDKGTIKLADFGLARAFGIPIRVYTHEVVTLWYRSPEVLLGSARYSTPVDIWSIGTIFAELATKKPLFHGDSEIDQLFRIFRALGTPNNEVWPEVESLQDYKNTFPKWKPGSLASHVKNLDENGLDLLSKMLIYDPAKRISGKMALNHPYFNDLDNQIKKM
CDK1:CCNB1, sequence (P14635 whole entry partner): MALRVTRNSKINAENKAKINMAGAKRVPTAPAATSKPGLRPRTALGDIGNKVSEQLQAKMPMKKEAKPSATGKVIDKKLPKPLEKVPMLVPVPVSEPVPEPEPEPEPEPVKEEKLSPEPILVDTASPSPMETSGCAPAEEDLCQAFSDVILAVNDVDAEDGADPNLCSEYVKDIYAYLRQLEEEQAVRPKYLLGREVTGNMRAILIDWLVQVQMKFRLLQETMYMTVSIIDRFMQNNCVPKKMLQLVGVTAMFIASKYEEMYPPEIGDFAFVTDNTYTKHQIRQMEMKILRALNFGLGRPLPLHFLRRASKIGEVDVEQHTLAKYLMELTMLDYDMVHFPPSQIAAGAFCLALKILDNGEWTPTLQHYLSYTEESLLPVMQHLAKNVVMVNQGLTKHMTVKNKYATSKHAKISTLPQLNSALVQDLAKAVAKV
Method: as §1

[5] = aqueous phosphate buffer, 25 °C, pH 7.4, aqueous buffer, thermodynamic from solid

SMILES | pIC50 (CDK2:CCNE1) | solubility at 24 h [1, 5] | pIC50 ([2]; Homo sapiens, MCF7, 2 h) | HLM CLint [3] | pIC50 (CDK4:CCND1) | pIC50 ([4]; Homo sapiens, MCF7, 2 h) | pIC50 (OVCAR3 cells; Homo sapiens, OVCAR-3, 48 h) | pIC50 (MCF-7 cells; Homo sapiens, MCF7, 48 h) | pIC50 (CDK1:CCNB1) | solubility at 24 h ([1]; 25° C.) | pIC50 [2] | pIC50 ([4]; 2 hours) | pIC50 (OVCAR3 cells) | pIC50 (MCF-7 cells) | pIC50 ([4]; Homo sapiens, MCF7, 2 hours)
CC[C@H](Nc1nc(N[C@@H]2CN(S(=O)(=O)NC)C[C@H]2F)c2ncn(CC)c2n1)[C@@H](C)O (relative stereo) [Example 52, (3R*,4R*)-3-((9-ethyl-2-(((2R,3S)-2-hydroxypentan-3-yl)amino)-9H-purin-6-yl)amino)-4-fluoro-N-methylpyrrolidine-1-sulfonamide] | 7.68 | 300 µM (≈ 133 µg/mL) | 4.95 | 21.1 µL/min/mg | 4.77 | 6.82 | 6.60 | 5.99 | 5.92 |  |  |  |  |  | 
CC[C@H](Nc1nc(N[C@H]2C[C@@H](C)N(S(C)(=O)=O)C2)c2ncn(C(C)C)c2n1)[C@@H](C)O [Example 37, (2R,3S)-3-((9-isopropyl-6-(((3S,5R)-5-methyl-1-(methylsulfonyl)-pyrrolidin-3-yl)amino)-9H-purin-2-yl)amino)pentan-2-ol] | 7.21 | 414 µM (≈ 182 µg/mL) | < 4.52 | 143 µL/min/mg | < 4.53 |  | 5.89 | 5.55 | 5.34 |  |  |  |  |  | 6.06
CCn1cnc2c(N[C@H]3CCN(S(=O)(=O)NC)C3)nc(N[C@@H](C)[C@@H](O)C(F)(F)F)nc21 (single isomer, unassigned) [Example 50, (S)-3-((9-ethyl-2-(((2R*,3S*)-4,4,4-trifluoro-3-hydroxybutan-2-yl)amino)-9H-purin-6-yl)amino)-N-methylpyrrolidine-1-sulfonamide] | 7.19 |  |  | 36.3 µL/min/mg | 4.85 |  |  |  | 5.63 | 23.1 µM (≈ 10.8 µg/mL) | < 4.52 | 6.39 | 5.91 | 5.56 | 
CC(C)[C@H](CO)Nc1nc(N[C@@H]2CN(S(C)(=O)=O)C[C@H]2C)c2ncn(C(C)C)c2n1 [Example 36, (R)-2-((9-isopropyl-6-(((3S,4R)-4-methyl-1-(methylsulfonyl)-pyrrolidin-3-yl)amino)-9H-purin-2-yl)amino)-3-methylbutan-1-ol] | 7.30 | 11.1 µM (≈ 4.88 µg/mL) | < 4.52 | >300 µL/min/mg | < 4.53 |  | 5.90 | 5.52 | 5.69 |  |  |  |  |  | 5.91
CC(C)[C@H](CO)Nc1nc(N[C@H]2C[C@@H](C)N(S(C)(=O)=O)C2)c2ncn(C(C)C)c2n1 [Example 34, (R)-2-((9-isopropyl-6-(((3S,5R)-5-methyl-1-(methylsulfonyl)-pyrrolidin-3-yl)amino)-9H-purin-2-yl)amino)-3-methylbutan-1-ol] | 7.92 | 59.9 µM (≈ 26.3 µg/mL) | < 4.52 | >300 µL/min/mg | 4.93 |  | 6.31 | 5.94 | 6.07 |  |  |  |  |  | 6.42

Second part, led by results:

pIC50 (CDK2:CCNE1) | solubility at 24 h [1, 5] | pIC50 ([2]; Homo sapiens, MCF7, 2 h) | HLM CLint [3] | pIC50 (CDK4:CCND1) | pIC50 ([4]; Homo sapiens, MCF7, 2 h) | pIC50 (OVCAR3 cells; Homo sapiens, OVCAR-3, 48 h) | pIC50 (MCF-7 cells; Homo sapiens, MCF7, 48 h) | pIC50 (CDK1:CCNB1) | solubility at 24 h ([1]; 25° C.) | pIC50 [2] | pIC50 ([4]; 2 hours) | pIC50 (OVCAR3 cells) | pIC50 (MCF-7 cells) | SMILES | pIC50 ([4]; Homo sapiens, MCF7, 2 hours)
7.00 | > 904 µM | < 4.52 | 17.6 µL/min/mg | < 4.64 | 6.32 | 5.89 | 5.53 | 5.34 |  |  |  |  |  | CC[C@H](Nc1nc(N[C@H]2CCN(S(N)(=O)=O)C2)c2ncn(CC)c2n1)C(C)=O [Example 10, (S)-3-((9-ethyl-2-(((S)-2-oxopentan-3-yl)amino)-9H-purin-6-yl)amino)pyrrolidine-1-sulfonamide] | 
7.43 | > 1000 µM | < 4.52 | 35.9 µL/min/mg | 4.94 | 6.47 | 6.02 | 5.75 | 5.77 |  |  |  |  |  | CCNS(=O)(=O)N1CC[C@H](Nc2nc(N[C@@H](C)C(C)(C)O)nc3c2ncn3CC)C1 (relative stereo) [Example 59, (S)—N-ethyl-3-((9-ethyl-2-(((R*)-3-hydroxy-3-methylbutan-2-yl)-amino)-9H-purin-6-yl)amino)pyrrolidine-1-sulfonamide] | 
7.00 | > 1000 µM | < 4.52 | 13.4 µL/min/mg | 4.69 | 6.36 | 6.31 | 5.98 | 5.66 |  |  |  |  |  | CC[C@H](Nc1nc(N[C@H]2CCN(S(N)(=O)=O)C2)c2ncn(CC)c2n1)[C@@H](C)O [Example 9, (S)-3-((9-ethyl-2-(((2R,3S)-2-hydroxypentan-3-yl)amino)-9H-purin-6-yl)amino)pyrrolidine-1-sulfonamide] | 
